US20220339143A1, “TAK-925 FOR USE IN TREATING NARCOLEPSY” (Takeda Pharmaceutical Company Limited, priority 2019, published 2022)
Like-named read-outs stand apart in the source and are kept apart here.

Assay: Single dose PK in healthy subjects (Cohorts 1, 2, S1 and S2), plasma
Assay type: in vivo, human
Settings: human, plasma
Description: This study investigates (i) the safety and tolerability of Compound A (methyl (2R,3S)-3-((methylsulfonyl)amino)-2-(((cis-4-phenylcyclohexyl)oxy)methyl)piperidine-1-carboxylate) when a single dose given as a 9 hour continuous IV infusion is administered to healthy adults, healthy elderly subjects and patients with narcolepsy type 1 (NT1); (ii) the pharmacokinetics of Compound A when a single dose given as a 9 hour continuous IV infusion is administered to healthy adults, healthy elderly subjects and patients with narcolepsy type 1; and (iii) the pharmacodynamics (PD) effects of Compound A, primarily by evaluation of the sleep latency on MWT when a single dose given as a 9 hour continuous IV infusion is administered to patients with narcolepsy type 1.
Pharmacokinetics: Concentrations of Compound A in plasma, and CSF, and pharmacokinetics parameters.
On average, the time to reach the plateau appeared to be approximately 3 to 4 hours after the start of infusion. […] After switching off the IV infusion, Compound A plasma concentrations declined rapidly and in a biphasic manner with a mean terminal disposition phase t1/2z ranging approximately from 3.4 to 5.1 hours across all doses. […] Table 5 provides a summary of plasma concentrations of Compound A after a single IV infusion in healthy subjects. Table 6 provides a summary of pharmacokinetic parameters of Compound A after a single IV infusion in healthy subjects.

[1] = intravenous, 180 mg, read-out: Plasma concentration, Maximum
[2] = intravenous, 180 mg, read-out: Plasma concentration, Mean
[3] = intravenous, 180 mg, read-out: Plasma concentration, Median
[4] = intravenous, 180 mg, read-out: Plasma concentration, Minimum
[5] = intravenous, 180 mg, read-out: Plasma concentration, Q1
[6] = intravenous, 180 mg, read-out: Plasma concentration, Q3
[7] = intravenous, 240 mg, read-out: Plasma concentration, Mean
[8] = intravenous, 240 mg, read-out: Plasma concentration, Minimum
[9] = intravenous, 240 mg, read-out: Plasma concentration, Q1

In the case of `COC(=O)N1CCC[C@H](NS(C)(=O)=O)[C@@H]1CO[C@H]1CC[C@@H](c2ccccc2)CC1` [Compound A, methyl (2R,3S)-3-((methylsulfonyl)amino)-2-(((cis-4-phenylcyclohexyl)oxy)methyl)piperidine-1-carboxylate], the concentration at 1 h [1] is reported as 265 ng/mL, the concentration at 1 h [2] is reported as 216 ng/mL and the concentration at 1 hr [3] is reported as 215 ng/mL. For the same compound, the concentration at 1 hr [4] was 173 ng/mL, the concentration at 1 hr [5] was 201 ng/mL and the concentration at 1 h [6] was 229 ng/mL. For the same compound, the concentration at 1.5 h [1] was 304 ng/mL, the concentration at 1.5 h [2] was 255 ng/mL and the concentration at 1.5 hr [3] was 242 ng/mL. For the same compound, the concentration at 1.5 hr [4] was 224 ng/mL, the concentration at 1.5 hr [5] was 228 ng/mL and the concentration at 1.5 h [6] was 290 ng/mL. The concentration at 2 h [1] was 341 ng/mL, the concentration at 2 h [2] was 294 ng/mL and the concentration at 2 hr [3] was 292 ng/mL. It also gave a concentration at 2 hr [4] of 251 ng/mL, a concentration at 2 hr [5] of 271 ng/mL and a concentration at 2 h [6] of 320 ng/mL. It also gave a concentration at 3 h [1] of 355 ng/mL, a concentration at 3 h [2] of 315 ng/mL and a concentration at 3 hr [3] of 314 ng/mL. For the same compound, the concentration at 3 hr [4] was 276 ng/mL, the concentration at 3 hr [5] was 307 ng/mL and the concentration at 3 h [6] was 324 ng/mL. For the same compound, the concentration at 4 h [1] was 361 ng/mL, the concentration at 4 hr [2] was 328 ng/mL and the concentration at 4 hr [3] was 325 ng/mL. For the same compound, the concentration at 4 hr [4] was 293 ng/mL, the concentration at 4 hr [5] was 304 ng/mL and the concentration at 4 h [6] was 358 ng/mL. The concentration at 6 h [1] was 322 ng/mL, the concentration at 6 hr [2] was 292 ng/mL and the concentration at 6 hr [3] was 292 ng/mL. The concentration at 6 hr [4] was 252 ng/mL, the concentration at 6 hr [5] was 285 ng/mL and the concentration at 6 h [6] was 311 ng/mL. For the same compound, the concentration at 8 h [1] was 337 ng/mL, the concentration at 8 h [2] was 300 ng/mL and the concentration at 8 hr [3] was 292 ng/mL. The concentration at 8 hr [4] was 275 ng/mL, the concentration at 8 hr [5] was 277 ng/mL and the concentration at 8 hr [6] was 330 ng/mL. For the same compound, the concentration at 9 h (intravenous, 180 mg, 9 hr, read-out: Plasma concentration, Maximum) was 364 ng/mL, the concentration at 9 h (intravenous, 180 mg, 9 hr, read-out: Plasma concentration, Mean) was 325 ng/mL and the concentration at 9 hr (intravenous, 180 mg, 9 hr, read-out: Plasma concentration, Median) was 316 ng/mL. For the same compound, the concentration at 9 hr (intravenous, 180 mg, 9 hr, read-out: Plasma concentration, Minimum) was 285 ng/mL, the concentration at 9 hr (intravenous, 180 mg, 9 hr, read-out: Plasma concentration, Q1) was 311 ng/mL and the concentration at 9 hr (intravenous, 180 mg, 9 hr, read-out: Plasma concentration, Q3) was 358 ng/mL. The concentration at 0.5 h (intravenous, 240 mg, 0.5 hr, read-out: Plasma concentration, Mean) was 292 ng/mL, the concentration at 0.5 hr (intravenous, 240 mg, 0.5 hr, read-out: Plasma concentration, Minimum) was 228 ng/mL and the concentration at 0.5 hr (intravenous, 240 mg, 0.5 hr, read-out: Plasma concentration, Q1) was 230 ng/mL. For the same compound, the concentration at 1 h [7] was 345 ng/mL, the concentration at 1 hr [8] was 265 ng/mL and the concentration at 1 hr [9] was 286 ng/mL. For the same compound, the concentration at 1.5 h [7] was 388 ng/mL, the concentration at 1.5 hr [8] was 315 ng/mL and the concentration at 1.5 hr [9] was 333 ng/mL. It also gave a concentration at 2 h [7] of 403 ng/mL, a concentration at 2 hr [8] of 337 ng/mL and a concentration at 2 hr [9] of 349 ng/mL. For the same compound, the concentration at 3 h [7] was 456 ng/mL, the concentration at 3 hr [8] was 393 ng/mL and the concentration at 3 hr [9] was 400 ng/mL. For the same compound, the concentration at 4 h [7] was 493 ng/mL, the concentration at 4 hr [8] was 388 ng/mL and the concentration at 4 hr [9] was 423 ng/mL. For the same compound, the concentration at 6 h [7] was 428 ng/mL, the concentration at 6 hr [8] was 335 ng/mL and the concentration at 6 hr [9] was 366 ng/mL. It also gave a concentration at 8 h [7] of 474 ng/mL, a concentration at 8 h [8] of 393 ng/mL and a concentration at 8 hr [9] of 409 ng/mL. The concentration at 9 h (intravenous, 240 mg, 9 hr, read-out: Plasma concentration, Mean) was 497 ng/mL, the concentration at 9 hr (intravenous, 240 mg, 9 hr, read-out: Plasma concentration, Minimum) was 417 ng/mL and the concentration at 9 hr (intravenous, 240 mg, 9 hr, read-out: Plasma concentration, Q1) was 452 ng/mL. The AUC (iv, 7 mg, 7 mg single IV infusion, healthy subjects, read-out: AUC24 Geo Mean) was 140 ng·h/mL, the AUC (iv, 7 mg, 7 mg single IV infusion, healthy subjects, read-out: AUC24 Mean) was 142 ng·h/mL and the AUC (iv, 7 mg, 7 mg single IV infusion, healthy subjects, read-out: AUC24 Median) was 142 ng·h/mL. It also gave an AUC(0-inf) (iv, 7 mg, 7 mg single IV infusion, healthy subjects, read-out: AUCinf Geo Mean) of 142 ng·h/mL, an AUC(0-inf) (iv, 7 mg, 7 mg single IV infusion, healthy subjects, read-out: AUCinf Mean) of 143 ng·h/mL and an AUC(0-inf) (iv, 7 mg, 7 mg single IV infusion, healthy subjects, read-out: AUCinf Median) of 146 ng·h/mL. For the same compound, the AUC(0-t) (iv, 7 mg, 7 mg single IV infusion, healthy subjects, read-out: AUClast Geo Mean) was 138 ng·h/mL, the AUC(0-t) (iv, 7 mg, 7 mg single IV infusion, healthy subjects, read-out: AUClast Mean) was 140 ng·h/mL and the AUC(0-t) (iv, 7 mg, 7 mg single IV infusion, healthy subjects, read-out: AUClast Median) was 142 ng·h/mL. For the same compound, the clearance (iv, 7 mg, 7 mg single IV infusion, healthy subjects, read-out: CL Mean (converted)) was 833 mL/min, the concentration at 9 h (iv, 7 mg, 7 mg single IV infusion, healthy subjects, read-out: Ceoi Geo Mean) was 13.4 ng/mL and the concentration at 9 h (iv, 7 mg, 7 mg single IV infusion, healthy subjects, read-out: Ceoi Mean) was 13.5 ng/mL. For the same compound, the concentration at 9 h (iv, 7 mg, 7 mg single IV infusion, healthy subjects, read-out: Ceoi Median) was 13.9 ng/mL, the Cmax (iv, 7 mg, 7 mg single IV infusion, healthy subjects, read-out: Cmax Geo Mean) was 16.7 ng/mL and the Cmax (iv, 7 mg, 7 mg single IV infusion, healthy subjects, read-out: Cmax Mean) was 16.9 ng/mL. For the same compound, the Cmax (iv, 7 mg, 7 mg single IV infusion, healthy subjects, read-out: Cmax Median) was 16.5 ng/mL, the Vd (iv, 7 mg, 7 mg single IV infusion, healthy subjects, read-out: Vss Mean) was 82.9 L and the Vd (iv, 7 mg, 7 mg single IV infusion, healthy subjects, read-out: Vz Mean) was 292 L. For the same compound, the Vd (iv, 7 mg, 7 mg single IV infusion, healthy subjects, read-out: Vz Median) was 303 L, the Tmax (iv, 7 mg, 7 mg single IV infusion, healthy subjects, read-out: tmax Mean) was 3 h and the Tmax (iv, 7 mg, 7 mg single IV infusion, healthy subjects, read-out: tmax Median) was 3 h. It also gave an AUC (iv, 14 mg, 14 mg single IV infusion, healthy subjects, read-out: AUC24 Geo Mean) of 323 ng·h/mL, an AUC (iv, 14 mg, 14 mg single IV infusion, healthy subjects, read-out: AUC24 Mean) of 326 ng·h/mL and an AUC (iv, 14 mg, 14 mg single IV infusion, healthy subjects, read-out: AUC24 Median) of 322 ng·h/mL. It also gave an AUC(0-inf) (iv, 14 mg, 14 mg single IV infusion, healthy subjects, read-out: AUCinf Geo Mean) of 328 ng·h/mL and an AUC(0-inf) (iv, 14 mg, 14 mg single IV infusion, healthy subjects, read-out: AUCinf Mean) of 331 ng·h/mL.
